# Experimental data as given in the supplement of paper PMC10307832.
# Experiments:
# Assay in all cases: relative viability (nuclei count vs DMSO), 5 days (fraction); higher = more cells survive
# Cediranib + Crizotinib = compound: COc1cc2c(Oc3ccc4[nH]c(C)cc4c3F)ncnc2cc1OCCCN1CCCC1 [Cediranib] + C[C@@H](Oc1cc(-c2cnn(C3CCNCC3)c2)cnc1N)c1c(Cl)ccc(F)c1Cl [Crizotinib] (partner 1 µM)
# How it was run: (§1)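 Relative viability equals treated-well nuclei counts divided by vehicle-well nuclei counts. Counts came from 4× images of lung cancer cell lines grown in 1536-well plates for 5 days after pin-tool dosing on the day after seeding. Dosing used one drug alone or a fixed anchor-drug dose plus five library-drug doses (not always all listed) in √10 steps, and values are medians of duplicate plates.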
# Decitabine + Phenformin = compound: Nc1ncn([C@H]2C[C@H](O)[C@@H](CO)O2)c(=O)n1 [Decitabine] + N=C(N)NC(=N)NCCc1ccccc1 [Phenformin] (partner 250 µM)
# How it was run: as §1
# Halofuginone + Foretinib = compound: O=C(C[C@H]1NCCC[C@@H]1O)Cn1cnc2cc(Br)c(Cl)cc2c1=O (racemic) [Halofuginone] + COc1cc2c(Oc3ccc(NC(=O)C4(C(=O)Nc5ccc(F)cc5)CC4)cc3F)ccnc2cc1OCCCN1CCOCC1 [Foretinib] (partner 0.25 µM)
# How it was run: as §1
# Halofuginone + Alpelisib = compound: O=C(C[C@H]1NCCC[C@@H]1O)Cn1cnc2cc(Br)c(Cl)cc2c1=O (racemic) [Halofuginone] + Cc1nc(NC(=O)N2CCC[C@H]2C(N)=O)sc1-c1ccnc(C(C)(C)C(F)(F)F)c1 [Alpelisib] (partner 2 µM)
# How it was run: as §1
Cell Line,relative viability (Cediranib + Crizotinib; first compound 0.04 µM),relative viability (Cediranib + Crizotinib; first compound 0.1265 µM),relative viability (Cediranib + Crizotinib; first compound 0.4 µM),relative viability (Cediranib + Crizotinib; first compound 1.265 µM),relative viability (Cediranib + Crizotinib; first compound 4 µM),relative viability (Decitabine + Phenformin; first compound 0.04 µM),relative viability (Decitabine + Phenformin; first compound 0.1265 µM),relative viability (Decitabine + Phenformin; first compound 0.4 µM),relative viability (Decitabine + Phenformin; first compound 1.265 µM),relative viability (Decitabine + Phenformin; first compound 4 µM),relative viability (Halofuginone + Foretinib; first compound 0.001 µM),relative viability (Halofuginone + Foretinib; first compound 0.003162 µM),relative viability (Halofuginone + Foretinib; first compound 0.01 µM),relative viability (Halofuginone + Foretinib; first compound 0.03162 µM),relative viability (Halofuginone + Foretinib; first compound 0.1 µM),relative viability (Halofuginone + Alpelisib; first compound 0.001 µM),relative viability (Halofuginone + Alpelisib; first compound 0.003162 µM),relative viability (Halofuginone + Alpelisib; first compound 0.01 µM),relative viability (Halofuginone + Alpelisib; first compound 0.03162 µM),relative viability (Halofuginone + Alpelisib; first compound 0.1 µM)
NCI-H2347,0.672,0.698,0.794,0.865,0.675,0.472,0.384,0.413,0.467,0.326,1.35,0.929,0.994,0.841,1,1.07,1.07,1.09,1.02,0.876
NCI-H2405,0.849,0.82,0.792,0.823,0.825,0.388,0.39,0.408,0.321,0.366,1.11,1.1,1.03,1.02,0.888,0.94,0.939,0.839,0.757,0.546
NCI-H3122,0.259,0.297,0.277,0.256,0.275,0.371,0.364,0.342,–,0.315,0.931,0.946,0.963,0.96,0.987,0.79,0.801,0.638,0.76,0.781
PC-3 [JPC-3],1.05,1.04,1.01,1.02,0.857,0.372,0.452,0.393,0.386,0.379,1.02,1.04,0.981,0.996,1.08,1.09,1.03,0.95,1.01,0.92
